For the assay, the system named is P388 leukemia ip, CD2F1 mice, survival T/C. In words: NCI In Vivo Anticancer Drug Screen. Data for tumor model P388 Leukemia (intraperitoneal) in CD2F1 (CDF1) mice. The settings on record: endpoint: median survival time, higher = longer survival. In outline: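 Mice carrying the transplanted tumor received test compound or vehicle. Survival was recorded in each group, and the value is the treated-group measurement divided by that of the vehicle-treated control group.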

[1] abbreviates: dose: 100.0 mg/kg/injection, schedule: Q01DX009 (ip), vehicle: saline with Tween-80.
Where [2] appears, read: dose: 200.0 mg/kg/injection, schedule: Q01DX009 (ip), vehicle: saline with Tween-80.
Setting [3] is: dose: 400.0 mg/kg/injection, schedule: Q01DX009 (ip), vehicle: saline with Tween-80.
Where [4] appears, read: dose: 100.0 mg/kg/injection, schedule: Q01DX001 (ip), vehicle: saline with Tween-80.
Setting [5] is: dose: 200.0 mg/kg/injection, schedule: Q01DX001 (ip), vehicle: saline with Tween-80.
[6] abbreviates: dose: 400.0 mg/kg/injection, schedule: Q01DX001 (ip), vehicle: saline with Tween-80.
The mark [7] stands for this setting: dose: 100.0 mg/kg/injection, schedule: Q04DX002 (ip), vehicle: Klucel (hydroxypropylcellulose) (HPC).
Where [8] appears, read: dose: 200.0 mg/kg/injection, schedule: Q04DX002 (ip), vehicle: Klucel (hydroxypropylcellulose) (HPC).
Setting [9] is: dose: 400.0 mg/kg/injection, schedule: Q04DX002 (ip), vehicle: Klucel (hydroxypropylcellulose) (HPC).
Setting [10] is: dose: 50.0 mg/kg/injection, schedule: Q01DX005 (ip), vehicle: Klucel (hydroxypropylcellulose) (HPC).
The mark [11] stands for this setting: dose: 100.0 mg/kg/injection, schedule: Q01DX005 (ip), vehicle: Klucel (hydroxypropylcellulose) (HPC).
Setting [12] is: dose: 100.0 mg/kg/injection, schedule: Q04DX003 (ip), vehicle: saline with Tween-80.
Where [13] appears, read: dose: 200.0 mg/kg/injection, schedule: Q04DX003 (ip), vehicle: saline with Tween-80.
Setting [14] is: dose: 400.0 mg/kg/injection, schedule: Q04DX003 (ip), vehicle: saline with Tween-80.
Where [15] appears, read: dose: 12.5 mg/kg/injection, schedule: Q01DX005 (ip), vehicle: saline with Tween-80.
The mark [16] stands for this setting: dose: 25.0 mg/kg/injection, schedule: Q01DX005 (ip), vehicle: saline with Tween-80.
[17] abbreviates: dose: 50.0 mg/kg/injection, schedule: Q01DX005 (ip), vehicle: saline with Tween-80.

Where “and” joins values, the source holds several entries; their conditions need not be identical. Equal entries are not always repeated. Inconclusive results and toxic doses are left out.

Take `CC(=O)[O][Pb]([O]C(C)=O)([c]1ccccc1)[c]1ccccc1`: the T/C reads like this: (dose: 6.25 mg/kg/injection, schedule: Q01DX009 (ip), vehicle: Klucel (hydroxypropylcellulose) (HPC)) 121 % of control; (dose: 12.5 mg/kg/injection, schedule: Q01DX009 (ip), vehicle: Klucel (hydroxypropylcellulose) (HPC)) 124 % of control; (dose: 17.8 mg/kg/injection, schedule: Q01DX009 (ip), vehicle: saline with Tween-80) 114 % of control; (dose: 25.0 mg/kg/injection, schedule: Q01DX009 (ip), vehicle: Klucel (hydroxypropylcellulose) (HPC)) 119 % of control; (dose: 30.0 mg/kg/injection, schedule: Q01DX009 (ip), vehicle: Klucel (hydroxypropylcellulose) (HPC)) 104 % of control; (dose: 40.0 mg/kg/injection, schedule: Q01DX009 (ip), vehicle: saline with Tween-80) 123 % of control. Moreover, the T/C is, setting by setting: (dose: 45.0 mg/kg/injection, schedule: Q01DX009 (ip), vehicle: Klucel (hydroxypropylcellulose) (HPC)) 112 % of control; (dose: 50.0 mg/kg/injection, schedule: Q01DX009 (ip), vehicle: Klucel (hydroxypropylcellulose) (HPC)) 120 % of control; (dose: 65.0 mg/kg/injection, schedule: Q01DX009 (ip), vehicle: Klucel (hydroxypropylcellulose) (HPC)) 107 % of control; (dose: 100.0 mg/kg/injection, schedule: Q01DX009 (ip), vehicle: Klucel (hydroxypropylcellulose) (HPC)) 123 % of control; (dose: 150.0 mg/kg/injection, schedule: Q01DX009 (ip), vehicle: Klucel (hydroxypropylcellulose) (HPC)) 150 % of control.
With `O=c1[nH]cc(C(O)Cc2ccccc2)c(=O)[nH]1` (stereo unspecified), the T/C is 104 % of control under setting [1], 100 % of control under setting [2] and 100 % of control under setting [3].
For the compound `CCCCn1c(Cl)c(/C=N\Nc2ccccc2[N+](=O)[O-])c2ccccc21`, the T/C was 93 % of control under setting [4], 90 % of control under setting [5] and 93 % of control under setting [6].
As for `CCN1C=C(C(=O)OC)C(N)=C(C#N)/C1=C\C=C(/C#N)C(=O)OC`, the T/C under setting [7] is 92 % of control, the T/C under setting [8] is 101 % of control and the T/C under setting [9] is 89 % of control.
`CCCCC1(CCCCCCCCC(O)CC(=O)OCC)OCCO1` (stereo unspecified): the T/C reads like this: under setting [7], 104 % of control; under setting [8], 100 % of control; under setting [9], 96 % of control.
For the compound `Cc1cc(Oc2cnc(=O)[nH]c2)cs1`, the T/C was 100 % of control (dose: 60.0 mg/kg/injection, schedule: Q01DX005 (ip), vehicle: Klucel (hydroxypropylcellulose) (HPC)); 94 % of control (dose: 120.0 mg/kg/injection, schedule: Q01DX005 (ip), vehicle: Klucel (hydroxypropylcellulose) (HPC)); 94 % of control (dose: 240.0 mg/kg/injection, schedule: Q01DX005 (ip), vehicle: Klucel (hydroxypropylcellulose) (HPC)).
Turning to `CC(C)(C)B1N(c2ccccc2)N=NN1C(C)(C)C`, the T/C is 100 % of control (dose: 60.0 mg/kg/injection, schedule: Q01DX005 (ip), vehicle: saline); 99 % of control and 88 % of control (dose: 120.0 mg/kg/injection, schedule: Q01DX005 (ip), vehicle: saline); 96 % of control and 98 % of control (dose: 240.0 mg/kg/injection, schedule: Q01DX005 (ip), vehicle: saline).
Turning to `CN(C)CCOc1ccc(/C=C2\CCc3ccccc3C2=O)cc1`, the T/C reads like this: (dose: 60.0 mg/kg/injection, schedule: Q01DX005 (ip), vehicle: saline with Tween-80) 97 % of control; (dose: 120.0 mg/kg/injection, schedule: Q01DX005 (ip), vehicle: saline with Tween-80) 94 % of control; (dose: 240.0 mg/kg/injection, schedule: Q01DX005 (ip), vehicle: saline with Tween-80) 95 % of control.
Take `COc1cc2oc3cc(OC)c(OC)c(CC=C(C)C)c3c(=O)c2c(O)c1CC=C(C)C`: the T/C is 87 % of control (dose: 25.0 mg/kg/injection, schedule: Q01DX005 (ip), vehicle: Klucel (hydroxypropylcellulose) (HPC)); 100 % of control under setting [10]; 86 % of control and 97 % of control under setting [11]; 105 % of control (dose: 200.0 mg/kg/injection, schedule: Q01DX005 (ip), vehicle: Klucel (hydroxypropylcellulose) (HPC)).
For `C=CC[Si](CC=C)(c1ccccc1)c1ccccc1`, the T/C is 99 % of control and 96 % of control (2×) (dose: 6.25 mg/kg/injection, schedule: Q01DX009 (ip), vehicle: saline); 98 % of control (dose: 200.0 mg/kg/injection, schedule: Q01DX009 (ip), vehicle: saline).
For `NS(=O)(=O)c1cc(Br)ccc1Br`, the T/C under setting [12] is 99 % of control, the T/C under setting [13] is 117 % of control and the T/C under setting [14] is 117 % of control.
Turning to `Nc1c(C(=O)O)ccc2c1C(=O)c1ccccc1C2=O`, the T/C (dose: 6.25 mg/kg/injection, schedule: Q01DX005 (ip), vehicle: saline with Tween-80) is 96 % of control; the T/C under setting [15] was 96 % of control; the T/C under setting [16] was 98 % of control; the T/C under setting [17] was 103 % of control.
As to `CC1CCC2OC23C(=O)C2OC2C(C(C)(C)O)C13C` (stereo unspecified), the T/C was 104 % of control (dose: 100.0 mg/kg/injection, schedule: Q01DX001 (ip), vehicle: Klucel (hydroxypropylcellulose) (HPC)); 101 % of control (dose: 200.0 mg/kg/injection, schedule: Q01DX001 (ip), vehicle: Klucel (hydroxypropylcellulose) (HPC)); 100 % of control (dose: 400.0 mg/kg/injection, schedule: Q01DX001 (ip), vehicle: Klucel (hydroxypropylcellulose) (HPC)).
For the compound `CCCCCN(CCCCC)CC(O)c1ccc(OC)c2ccccc12` (stereo unspecified), the T/C runs as follows: under setting [10], 88 % of control; under setting [11], 88 % of control.
Regarding `CCN(CC)CCOC(=O)C1c2ccccc2-c2ccccc21`, the T/C by setting is: (dose: 50.0 mg/kg/injection, schedule: Q01DX005 (ip), vehicle: saline + Tween-80 + alcohol) 99 % of control; (dose: 100.0 mg/kg/injection, schedule: Q01DX005 (ip), vehicle: saline + Tween-80 + alcohol) 95 % of control; (dose: 200.0 mg/kg/injection, schedule: Q01DX005 (ip), vehicle: saline + Tween-80 + alcohol) 103 % of control.
Regarding `O=S(=O)(Nc1nccs1)c1ccc(N=Cc2c3ccccc3nc3cc(Cl)ccc23)cc1`, the T/C under setting [17] is 94 % of control; the T/C (dose: 100.0 mg/kg/injection, schedule: Q01DX005 (ip), vehicle: saline with Tween-80) is 93 % of control; the T/C (dose: 200.0 mg/kg/injection, schedule: Q01DX005 (ip), vehicle: saline with Tween-80) was 96 % of control.
Take `CC(=O)CCC(=O)OC(C)(C)CN`: the T/C was 100 % of control under setting [1]; 100 % of control under setting [12]; 100 % of control under setting [2]; 100 % of control under setting [13]; 104 % of control under setting [3]; 104 % of control under setting [14].
Consider `COc1ccccc1N=NC1=C2Sc3ccccc3N=C1N(c1ccccn1)C(=S)N2c1ccc(Cl)cc1`, for which the T/C was 103 % of control under setting [15]; 100 % of control under setting [16]; 110 % of control and 117 % of control under setting [17].
With `Cc1ccc(C)c(C2=C/C(=C/c3ccc(N(CCC#N)CCC#N)cc3)C(=O)O2)c1`, the T/C under setting [4] is 97 % of control, the T/C under setting [5] is 92 % of control and the T/C under setting [6] was 101 % of control.
Turning to `CN(/N=C(C#N)/C(N)=N/NC(=O)c1ccccc1)c1ccccc1`, the T/C reads like this: (dose: 25.0 mg/kg/injection, schedule: Q04DX002 (ip), vehicle: saline with Tween-80) 103 % of control; (dose: 50.0 mg/kg/injection, schedule: Q04DX002 (ip), vehicle: saline with Tween-80) 96 % of control; (dose: 100.0 mg/kg/injection, schedule: Q04DX002 (ip), vehicle: saline with Tween-80) 96 % of control.

Values taken from PubChem BioAssay AID330 (DTP/NCI, 2004).
